Reference: ChEMBL document CHEMBL3734664, “Noncovalent Mutant Selective Epidermal Growth Factor Receptor Inhibitors: A Lead Optimization Case Study” (J Med Chem, 2015)

What was measured:
[1] = Plasma clearance in rat at 5 mg/kg, iv; format: ADME, organism-based
[2] = Unbound fraction in mouse plasma; format: ADME, cell-free
[3] = target: T1, Epidermal growth factor receptor (Homo sapiens, UniProt P00533)
Description: Inhibition of EGFR phosphorylation in human NCI-H292 cells preincubated for 1 hr followed by stimulation with EGF for 8 mins by electrochemiluminescent immunoassay

[4] = Oral bioavailability in rat; format: ADME, organism-based; conditions: in vivo
[5] = test system: Mus musculus; assay: In vivo inhibition of EGFR phosphorylation in human NCI-H1975 cells xenografted in SCID mouse at 300 mg/kg, po qd everyday for 3 days measured 2 to 8 hrs post last dose by electrochemiluminescent immunoassay; format: functional
[6] = target: T2, Epidermal growth factor receptor (Homo sapiens, UniProt P00533, 746-750DEL/T790M); assay: Inhibition of human EGFR T790M/del (746 to 750) deletion mutant using Fl-EEPLYWSFPAKKK-CONH2 as substrate preincubated for 30 mins followed by addition of substrate measured after 30 mins by Morrison plot analysis; format: protein assay; conditions: read-out: Ki(app)
[7] = Antiproliferative activity against erlotinib-resistant human PC9 cells expressing EGFR with ex19del and T790M mutations after 72 hrs by luminescence assay; format: functional, cell-based; conditions: PC-9, 72 h
[8] = target: T1, Epidermal growth factor receptor; remark: listed apart in the source
[9] = target: Epidermal growth factor receptor (Homo sapiens, UniProt P00533, L858R/T790M)
[10] = physchem; conditions: buffer, pH 7.4, logD
Description: Lipophilicity, log D of the compound at pH 7.4 by microscale shake flask method

[11] = test system: Mus musculus; assay: In vivo inhibition of EGFR in human NCI-H1975 cells xenografted in SCID mouse assessed as suppression of ERK phosphorylation at 300 mg/kg, po qd everyday for 3 days measured 2 to 8 hrs post last dose by electrochemiluminescent immunoassay; format: functional
[12] = test system: NCI-H1975; assay: Antiproliferative activity against human NCI-H1975 cells expressing EGFR T790M/L858R double mutant after 72 hrs by luminescence assay; format: functional, cell-based; conditions: NCI-H1975, 72 h
[13] = test system: Mus musculus; assay: In vivo inhibition of EGFR in human NCI-H1975 cells xenografted in po dosed SCID mouse assessed as suppression of AKT phosphorylation administered as qd everyday for 3 days measured 2 to 8 hrs post last dose by electrochemiluminescent immunoassay; format: functional
[14] = target: T2, Epidermal growth factor receptor; assay: Inhibition of EGFR T790M/del (746 to 750) deletion mutant phosphorylation in erlotinib-resistant human PC9 cells preincubated for 1 hr followed by stimulation with EGF for 8 mins by electrochemiluminescent immunoassay; format: cell-based, PC-9
[15] = test system: Mus musculus; assay: In vivo inhibition of EGFR in human NCI-H1975 cells xenografted in po dosed SCID mouse assessed as suppression of ERK phosphorylation administered as qd everyday for 3 days measured 2 to 8 hrs post last dose by electrochemiluminescent immunoassay; format: functional
[16] = Volume of distribution at steady state in rat; format: ADME, organism-based; conditions: in vivo, read-out: Vdss
[17] = test system: Rattus norvegicus; assay: Unbound plasma clearance in rat at 5 mg/kg, iv; format: ADME, organism-based; conditions: in vivo
[18] = test system: Liver microsome; assay: Drug level in rat liver microsomes treated with (R)-1-[6-[2-(cis-3-Fluoro-4-methoxypiperidin-1-yl)pyrimidin-4-ylamino]-1-((S)-2,2,2-trifluoro-1-methylethyl)-1H-imidazo[4,5-c]pyridin-2-yl]ethanol; format: ADME
[19] = test system: NCI-H292; assay: Antiproliferative activity against human NCI-H292 cells expressing wild type EGFR after 72 hrs by luminescence assay; format: functional, cell-based; conditions: NCI-H292, 72 h
[20] = test system: Mus musculus; assay: In vivo inhibition of EGFR in human NCI-H1975 cells xenografted in SCID mouse assessed as suppression of AKT phosphorylation at 300 mg/kg, po qd everyday for 3 days measured 2 to 8 hrs post last dose by electrochemiluminescent immunoassay; format: functional
[21] = Half life in rat; format: ADME, organism-based; conditions: in vivo
[22] = test system: Hepatocyte; assay: Drug level in rat hepatocytes treated with (R)-1-[6-[2-(cis-3-Fluoro-4-methoxypiperidin-1-yl)pyrimidin-4-ylamino]-1-((S)-2,2,2-trifluoro-1-methylethyl)-1H-imidazo[4,5-c]pyridin-2-yl]ethanol; format: ADME, cell-based

T1 sequence (P00533 whole entry): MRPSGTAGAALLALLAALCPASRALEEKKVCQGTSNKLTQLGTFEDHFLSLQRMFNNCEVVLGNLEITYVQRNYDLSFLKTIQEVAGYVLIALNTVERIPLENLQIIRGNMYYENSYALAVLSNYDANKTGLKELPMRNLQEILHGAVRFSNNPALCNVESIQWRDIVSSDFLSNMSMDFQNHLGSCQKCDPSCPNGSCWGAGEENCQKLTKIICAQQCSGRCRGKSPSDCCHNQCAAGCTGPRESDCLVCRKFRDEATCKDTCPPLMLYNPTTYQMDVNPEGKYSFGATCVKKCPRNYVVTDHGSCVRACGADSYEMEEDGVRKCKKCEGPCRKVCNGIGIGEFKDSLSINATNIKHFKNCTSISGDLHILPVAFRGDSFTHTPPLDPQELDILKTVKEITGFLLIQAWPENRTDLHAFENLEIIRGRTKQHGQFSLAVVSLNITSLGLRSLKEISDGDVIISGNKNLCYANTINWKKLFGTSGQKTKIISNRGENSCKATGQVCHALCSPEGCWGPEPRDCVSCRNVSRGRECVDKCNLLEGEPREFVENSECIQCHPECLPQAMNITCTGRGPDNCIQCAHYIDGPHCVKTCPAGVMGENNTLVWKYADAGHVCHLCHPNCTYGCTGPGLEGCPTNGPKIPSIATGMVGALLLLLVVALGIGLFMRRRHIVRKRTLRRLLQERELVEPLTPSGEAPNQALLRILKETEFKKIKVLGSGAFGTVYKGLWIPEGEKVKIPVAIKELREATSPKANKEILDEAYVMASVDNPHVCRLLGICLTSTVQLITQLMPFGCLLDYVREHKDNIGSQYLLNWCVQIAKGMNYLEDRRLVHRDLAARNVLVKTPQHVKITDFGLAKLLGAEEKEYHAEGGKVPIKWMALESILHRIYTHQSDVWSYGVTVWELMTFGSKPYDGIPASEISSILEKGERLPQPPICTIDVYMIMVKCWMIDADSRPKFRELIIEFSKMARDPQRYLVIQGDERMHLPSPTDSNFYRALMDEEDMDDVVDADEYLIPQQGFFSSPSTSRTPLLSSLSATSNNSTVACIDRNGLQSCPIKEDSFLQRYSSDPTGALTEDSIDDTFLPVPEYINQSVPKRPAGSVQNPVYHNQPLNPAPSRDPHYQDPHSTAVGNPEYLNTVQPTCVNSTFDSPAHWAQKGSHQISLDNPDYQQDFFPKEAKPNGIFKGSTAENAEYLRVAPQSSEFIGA
T2 sequence (P00533 whole entry, looked up, stated change not applied): as the sequence (P00533 whole entry) above
Sequence of Epidermal growth factor receptor (Homo sapiens, UniProt P00533, L858R/T790M) (P00533 25-1210 T790M/L858R limits assumed): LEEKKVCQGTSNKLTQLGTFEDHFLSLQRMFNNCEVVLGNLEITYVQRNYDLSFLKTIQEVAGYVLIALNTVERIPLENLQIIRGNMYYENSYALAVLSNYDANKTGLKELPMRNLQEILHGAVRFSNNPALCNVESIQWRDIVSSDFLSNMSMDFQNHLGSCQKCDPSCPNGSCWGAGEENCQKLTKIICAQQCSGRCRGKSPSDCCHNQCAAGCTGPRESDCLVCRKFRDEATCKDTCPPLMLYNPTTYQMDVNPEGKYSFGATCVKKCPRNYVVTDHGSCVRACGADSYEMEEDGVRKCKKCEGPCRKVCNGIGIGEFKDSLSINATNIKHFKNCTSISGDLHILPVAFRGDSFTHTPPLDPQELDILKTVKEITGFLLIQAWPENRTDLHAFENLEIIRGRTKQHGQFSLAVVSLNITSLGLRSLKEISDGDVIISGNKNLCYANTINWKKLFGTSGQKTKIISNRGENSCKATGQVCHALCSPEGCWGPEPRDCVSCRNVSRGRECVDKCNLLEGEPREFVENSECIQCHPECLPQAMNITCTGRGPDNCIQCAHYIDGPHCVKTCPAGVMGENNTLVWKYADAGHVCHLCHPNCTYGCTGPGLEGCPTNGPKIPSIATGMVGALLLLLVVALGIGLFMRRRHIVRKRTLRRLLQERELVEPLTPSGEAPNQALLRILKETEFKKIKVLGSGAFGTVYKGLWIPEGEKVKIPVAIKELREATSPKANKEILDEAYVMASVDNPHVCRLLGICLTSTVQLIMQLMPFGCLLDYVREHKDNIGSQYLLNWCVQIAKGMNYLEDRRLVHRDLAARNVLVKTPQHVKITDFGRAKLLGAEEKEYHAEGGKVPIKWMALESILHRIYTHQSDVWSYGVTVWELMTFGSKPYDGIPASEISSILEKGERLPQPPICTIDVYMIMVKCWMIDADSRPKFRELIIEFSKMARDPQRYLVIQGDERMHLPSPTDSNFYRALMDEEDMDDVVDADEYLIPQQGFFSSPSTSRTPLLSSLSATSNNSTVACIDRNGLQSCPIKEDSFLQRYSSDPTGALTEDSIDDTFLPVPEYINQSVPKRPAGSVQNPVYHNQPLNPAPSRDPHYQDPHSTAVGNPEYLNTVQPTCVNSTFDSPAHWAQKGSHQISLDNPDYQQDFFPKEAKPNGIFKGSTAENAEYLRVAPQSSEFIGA

Compound: C[C@@H](O)c1nc2cnc(Nc3ccnc(N4CC[C@H](O)[C@H](F)C4)n3)cc2n1[C@H](C)C(F)(F)F
- clearance [1]: 71 mL/min/kg
- fraction unbound [2]: 0.207
- IC50 [3]: > 10000 nM
- bioavailability [4]: 29%
- inhibition in vivo at 300 mg/kg [5]: > 90%
- Ki [6]: 6 nM
- EC50 [7]: 170 nM
- Ki [8]: 313 nM
- Ki [9]: 2.5 nM
- logD [10]: 1.8
- inhibition in vivo at 300 mg/kg [11]: > 90%
- EC50 [12]: 868 nM
- fEC50 [13]: 0.5 µM
- IC50 [14]: 81 nM
- fEC50 [15]: 0.3 µM
- Vd [16]: 3.5 L/kg
- CL free [17]: 348 mL/min/kg
- Drug metabolism [18]: metabolite_detected
- EC50 [19]: > 10000 nM
- inhibition in vivo at 300 mg/kg [20]: > 65%
- half-life [21]: 42.6 min
- Drug metabolism [22]: metabolite_detected
